The subject of one data set is CDK5, CDK2, CDK1, CDK4. As to conditions: cited from earlier work.
A further data set relates to G93A-SOD1 expression. The data set can be described thus: SOD1 protein expression in cultured fibroblasts from G93A-SOD1 mice (ELISA). In kind it is cell-based, mouse. The settings on record: for Effect on SOD1 expression (in words) / Shape of dose-response curve for SOD1 expression / IC50: G93A-SOD1 mouse fibroblasts; for activity at 10 µM: Mus musculus, 48 h, 10 μM compound.

A further data set deals with SOD1. In words: SOD1 protein in CNS tissues of treated G93A-SOD1 mice (ELISA). The data set is classed as in vivo, mouse. As to conditions: 20 mg/kg IP every other day for 26 days. How it is done:
FIG. 7. Inhibition of SOD1 protein expression in the G93A-SOD1 mouse. GSK3B-I treatment was at 20 mg/kg IP every other day for 26 days. Mice were sacrificed and SOD1 measured in the indicated tissues. […] Error bars are SEM.
Initial testing was carried out in a small cohort (5-6 animals) of G93A-SOD1 mice (high level of mutant SOD1 expression). The drug was dosed at 20 mg/kg IP every other day for 26 days. Mice were sacrificed and SOD1 was measured by ELISA.
Background: An ELISA detects its analyte on a solid surface through an enzyme-linked reagent.

A further data set concerns SOD1 mRNA. In words: SOD1 mRNA in G93A-SOD1 mouse fibroblasts. In kind it is cell-based. The source says:
FIG. 3. […] A. Dose-dependent changes in G93A-SOD1 protein expression and B. SOD1 mRNA (n=3). Data are normalized to GAPDH activity (protein) or mRNA. Error bars are SEM.

The next data set deals with SOD1 expression. The data set can be described thus: SOD1 expression in G93A-SOD1 transgenic mouse motor neurons. In kind it is cell-based. The text has this:
The compound decreases SOD1 expression in vitro in assays done in mouse fibroblasts (FIG. 3) and mouse motor neurons (FIG. 7).
The mechanism of inhibition is largely due to a decrease in the G93A-SOD1 mRNA. The transgene expressed in the mouse uses the native human promoter. Thus, therapy with these drugs in human subjects would also lead to a decrease in SOD1 mRNA in all tissues.

Data set [1] can be described thus: Distribution in tissues of nontransgenic mice after injection. The data set is classed as in vivo, mouse. As to conditions: for Concentration (μM), Brain / Concentration (μM), Serum / Concentration (μM), Spinal cord: n = 2; for CNS distribution and persistence (in words): nontransgenic mice; for concentration at 2 h / concentration at 4 h / concentration at 24 h: mouse, other: injection, 10 mg/kg injection. How it is done:
The blood brain barrier permeability of GSK3B-II was determined in nontransgenic mice. […] The peak and sustained concentrations found in the spinal cord and brain indicate that the 20 mg/kg dose puts the drug into the inhibitory range found in the cellular assays.
(§1) We also tested compound NUCC-434 for distribution in non-transgenic mice. […] While there are a multitude of methods for improving aqueous solubility of drugs (32) we chose a relatively simple route using a cyclodextrin based carrier (Sulfo-butylether beta-cyclodextrin, Captisol) to solubilize the drug in aqueous solution. Using the cyclodextrin carrier, we were able to solubilize NUCC-434 to 2 mg/mL in water and deliver 10 mg/kg to nontransgenic mice for pharmacokinetics. […] However, the distribution dynamics are different in the presence of the cyclodextrin which appears to slow uptake into the CNS as the peak drug concentration was delayed (Table 4). Such changes in distribution dynamics using cyclodextrins have not been studied in detail.

The test system of data set [2] is cell toxicity. The data set can be described thus: Cell toxicity. The data set is classed as cell-based.
A further data set concerns the target GSK3β (Homo sapiens, UniProt P49841). The settings on record: published values; cited from earlier work.
A short description of data set [3]: Solubility in dosing vehicle. The data set is classed as physicochemical. The method, then: as §1
Data set [4] has as its system cell toxicity. The settings on record: cited from earlier work.
The mark [5] stands for this setting: 20 mg/kg intraperitoneal, 24 hr.
[6] abbreviates: Fibroblast, Table 2, relative to control, read-out: Relative SOD1 expression 10 μM compound.
Setting [7] is: Fibroblast, Table 5, read-out: Relative SOD1 Expression in Presence of Compound (10 μM).
[8] abbreviates: brain, cyclodextrin carrier, read-out: Brain.
[9] abbreviates: serum, cyclodextrin carrier, read-out: Serum.
[10] abbreviates: spinal cord, cyclodextrin carrier, read-out: Spinal Cord.

Each structure is given as a SMILES string. ≈ marks a conversion by molar mass, not a printed value. Entries after “also recorded” stand apart in the source; their conditions may differ. Where two headings read alike, the source gives them in different places.

Broadly, the IC50 is the concentration at which inhibition is half-maximal. The solubility is the dissolved amount per volume that the medium holds.

Chain of GSK3β (P49841 whole entry, species assumed): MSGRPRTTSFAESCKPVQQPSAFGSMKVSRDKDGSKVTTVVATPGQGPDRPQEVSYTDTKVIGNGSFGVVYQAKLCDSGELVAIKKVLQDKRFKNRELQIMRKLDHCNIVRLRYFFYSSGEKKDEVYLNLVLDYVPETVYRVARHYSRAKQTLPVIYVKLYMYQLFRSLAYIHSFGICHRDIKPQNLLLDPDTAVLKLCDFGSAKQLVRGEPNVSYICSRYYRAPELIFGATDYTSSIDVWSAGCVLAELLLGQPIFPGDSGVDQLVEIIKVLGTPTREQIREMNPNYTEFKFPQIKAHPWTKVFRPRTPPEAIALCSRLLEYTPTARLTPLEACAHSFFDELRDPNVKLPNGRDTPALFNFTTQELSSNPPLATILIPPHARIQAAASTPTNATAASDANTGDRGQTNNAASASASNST
Experimental for G93A-SOD1 expression: Fibroblasts were treated with the title compounds at the indicated concentration for 48 hr. Cells were washed, lysed, and SOD1 levels measured by ELISA. SOD1 levels are normalized to the total protein in the lysate.
Thus, we used cultured fibroblasts from the G93A-SOD1 transgenic mouse to screen GSK3β protein kinase inhibitors (FIG. 1) for their effects on SOD1 expression. The transgene construct contains the human SOD1 promoter so that cellular signaling processes that affect transcription of the gene will be fully functional. We chose a structurally diverse group of compounds including some natural products.

With `CCCCc1c(-c2ccc(O)cc2)[nH]c2nccnc12` [Aloisine, Aloisine A, reference compound], the “Comments: other kinases inhibited” value with CDK5, CDK2, CDK1, CDK4 is listed as “Also inhibits CDK5,”. Further, the entries for the “Effect on SOD1 expression (in words)” value in the data set with G93A-SOD1 expression and in the data set on G93A-SOD1 expression (48 hr treatment) were “increased SOD1 expression” and “Increases SOD1”, respectively.
In the case of `Ic1cccc(CSc2nnc(-c3ccncc3)o2)c1` [GSK3B-II, reference compound], the “Change of SOD1 protein in spinal cord, cerebellum, brain stem, cerebral cortex” value with SOD1 is reported as “significant decreases in SOD1 were measured; also recorded: SOD1 protein is reduced”. Also, the “Change of SOD1 protein in spinal cord, cerebellum, brain stem, cerebral cortex” value in the data set on SOD1 (listed as GSK3B-I) was “change in expression was significant”. Moreover, the “Effect on SOD1 mRNA” value in the data set with SOD1 mRNA is given as “reducing the level of SOD1 mRNA”. Also, the “Effect on SOD1 expression in motor neurons” value in the data set on SOD1 expression is recorded as “inhibits SOD1 expression”. Moreover, in the data set with G93A-SOD1 expression, the “Effect on SOD1 expression (in words)” value was “most potent at inhibiting G93A-SOD1 expression; also recorded: dose dependent reduction of SOD1 expression in vitro” and the “Shape of dose-response curve for SOD1 expression” value is reported as “biphasic dose-response curve”. The IC50 in the data set with G93A-SOD1 expression (48 hr treatment) was found to be 625 nM. In addition, in [1] (20 mg/kg intraperitoneal, 1 hr), the “Concentration (μM), Brain” value was 0.944 µM; the “Concentration (μM), Serum” value stood at 0.672 µM; the “Concentration (μM), Spinal cord” value came to 4.00 µM. Moreover, in data set [1] (setting [5]), the “Concentration (μM), Brain” value was found to be 0.077 µM; the “Concentration (μM), Serum” value came out at 0.073 µM; the “Concentration (μM), Spinal cord” value turned out to be 0.855 µM. Besides, the “CNS distribution and persistence (in words)” value in [1] (20 mg/kg intraperitoneal) was “rapidly distributes into the brain and spinal cord; also recorded: still detectable after 24 hrs in the brain and spinal cord”.
As for `O=C(CCl)c1cc(Br)c(Br)s1` [GSK3B-VI, reference compound], the “Concentration at which cell toxicity is exhibited” value in the data set with cell toxicity [2] is “greater than 5 μM”. Further, the “Effect on SOD1 expression (in words)” value in the data set with G93A-SOD1 expression is listed as “inhibits SOD1 expression”. Also, the results for the IC50 in the data set with G93A-SOD1 expression (48 hr treatment) and on GSK3β were 650 nM and 1000 nM, respectively.
For `O=C1Cc2c([nH]c3ccc(Br)cc23)-c2ccccc2N1` [Kenpaullone, reference compound], the “Comments: other kinases inhibited” value with CDK5, CDK2, CDK1, CDK4 is recorded as “Also inhibits CDK5,”. In the data set on G93A-SOD1 expression (Fibroblast, 48 hr treatment), this compound gave an IC50 of 10000 nM. Besides, in the data set on G93A-SOD1 expression, the “Effect on SOD1 expression (in words)” value is “only weakly decreased SOD1 expression”.
For the compound `COc1ccc(CSc2nnc(-c3ccncc3)o2)cc1` [NUCC-434], the “Solubility in standard 1-2% DMSO vehicle” value in data set [3] (1-2% DMSO vehicle) is on record as “poor”. Further, the solubility in data set [3] (aqueous with cosolvent or surfactant or cyclodextrin, Sulfo-butylether beta-cyclodextrin (Captisol) in water, read-out: Solubility in water with cyclodextrin carrier) amounted to 2000 µg/mL (≈ 6.68 mM). Also, the “Effect on SOD1 expression (in words)” value in the data set on G93A-SOD1 expression was “dose dependent reduction of SOD1 expression in vitro”. Moreover, the “Shape of dose-response curve for SOD1 expression” value with G93A-SOD1 expression is reported as “flattened rather than upward curvature at higher concentration”. Also, the figures for the activity at 10 µM in the data set on G93A-SOD1 expression (setting [6]) and with G93A-SOD1 expression (setting [7]) were 47% and 47.4%, respectively. In addition, in data set [1] (10 mg/kg, cyclodextrin carrier), the “CNS distribution and persistence (in words)” value was “entered the CNS and persisted for 24 hr in the spinal cord”. Besides, the concentration at 2 h in data set [1] (setting [8]) stood at 29 nM; in [1] (setting [9]) it was 153 nM; in data set [1] (setting [10]), 57 nM. Further, the concentration at 4 h is 47 nM in data set [1] (setting [8]), 334 nM in [1] (setting [9]) and 162 nM in [1] (setting [10]). The concentration at 24 h was determined as 123 nM in data set [1] (serum, cyclodextrin carrier, 24 hr, read-out: Serum) and 113 nM in [1] (spinal cord, cyclodextrin carrier, 24 hr, read-out: Spinal Cord).
Consider `c1ccc(CSc2nnc(-c3ccncc3)o2)cc1` [NUCC-441], for which, in the data set on G93A-SOD1 expression, the “Effect on SOD1 expression (in words)” value was “activates expression of SOD1”. The activity at 10 µM in the data set with G93A-SOD1 expression (setting [6]) and in the data set on G93A-SOD1 expression (setting [7]) was 133% each time.
Take `CSc1nnc(-c2ccnc(Nc3ccccc3)c2)o1` [NUCC-0000471]: in the data set on G93A-SOD1 expression (setting [7]), the activity at 10 µM amounted to 106%.
The same measure, in the same setting: then `CSc1nnc(-c2ccnc(NCc3ccccc3)c2)o1` [NUCC-0000472], with 146%; and `CSc1nnc(-c2ccnc(NC3CCOCC3)c2)o1` [NUCC-0000473], with 127%.
Turning to `Cn1cc(C2=C(c3ccc(Cl)cc3Cl)C(=O)NC2=O)c2ccccc21` [SB216763, reference compound], the IC50 in the data set on G93A-SOD1 expression (Fibroblast, 48 hr treatment) stood at 3000 nM. Moreover, in the data set on G93A-SOD1 expression, the “Effect on SOD1 expression (in words)” value is listed as “not more effective at decreasing SOD1 expression in vitro”.
`CCc1nc(N)nc(N)c1-c1ccc(Cl)cc1` [pyrimethamine]: in the data set with cell toxicity [4], the “Cell toxicity in vitro” value is recorded as “cell toxicity in the effective dose range”.

(Values after patent US9669014B2, “Small molecule inhibitors of superoxide dismutase expression” (Northwestern University, priority 2014, dated 2017).)
